Test results: patent US7790364B2, “Compositions and methods for high throughput screening of pharmacological chaperones” (The Board of Trustees of the Leland Stanford Junior …, priority 2006, dated 2010)

Columns and labels:
Type in all cases: cell-based
[1] = biological target: T1, 4S-ΔF508 CFTR (Homo sapiens, UniProt P13569, DEL508-508/INS895[…]); assay: FACS assay measuring S-tag epitopes at the cell surface with a polyclonal antibody; conditions: for surface expression of CFTR (FACS): different concentrations, 1 or 2 days, with or without induction of 4S tag delta F508 expression, compared with 28° C. positive control
T1 construct: antibodies against the CFTR C-terminus to test for complete open reading frame; 4 x S-tag (KETAAAKFERQHMDS) with GGGG spacers, in the 4th extracellular loop; expressed in transfected cells
Source text: The library was screened against 4S-ΔF508 CFTR expressing CHO cells using the assay described in Example 2 above. Each of these compounds was retested using an FACS assay to measure S-tag epitopes at the cell surface with a polyclonal antibody, as shown in FIG. 8.

[2] = biological target: T1, 4S-ΔF508 CFTR; assay: Immunofluorescence labeling using polyclonal S-tag antibody; conditions: varying doses, FIG. 11
[3] = biological target: T1, 4S-ΔF508 CFTR; assay: Western blotting of CFTR expression in cells exposed to compound; conditions: FIG. 10
[4] = biological target: T1, 4S-ΔF508 CFTR; assay: RNAase S complementation screening assay on 4S-ΔF508 CFTR expressing CHO cells; conditions: LOPAC1280 library screen
Description: Optimize conditions for homogeneous cell-based assay for ΔF508-CFTR rescue. Surface detection of S-protein tagged CFTR used reconstitution of RNAase S activity and detection with the fluorogenic probe 6-F-dArUdAdA-6-TMR.
Screening was carried out on a customized apparatus (SAGIAN, Beckman) containing a 3-m rail Optimized Robot for Chemical Analysis that integrates the following robot-accessible instruments on a 4×2-m optical table: (a) SAGIAN 180 CO2 incubator, which holds 180 standard microplates in a storage carousel; (b) Elx405-Select plate washer with valve option and vacuum-sensing/waste alert for complex automated wash cycles; (c) SAGIAN MPS-8 CS incubator (holds eight standard microplates at 4-37±1° C.); […] SAGIAN shaker (six plate positions, frequency range 40-1100 rpm with variable amplitude); (e) Biomek 2000 liquid handling work station (installed with four positions to hold tip boxes with automatic air locks and six positions for microplates and liquid reservoirs, and MP 20 and MP 200 8-channel tip tools for liquid transfer); (f) SAGIAN carousel (holding 40 pipette tip boxes and 90 microplates); (g) SAGIAN bar code reader; (h) SAGIAN microplate lidding station with automatic vacuum control of six suction cups; (i) two FluoStar fluorescence plate readers (BMG Lab Technologies), each equipped with two-syringe pumps.
Data collection and analysis. […]

T1 sequence (P13569 with tags, fused parts or gaps DEL508-508/INS895[withheld]): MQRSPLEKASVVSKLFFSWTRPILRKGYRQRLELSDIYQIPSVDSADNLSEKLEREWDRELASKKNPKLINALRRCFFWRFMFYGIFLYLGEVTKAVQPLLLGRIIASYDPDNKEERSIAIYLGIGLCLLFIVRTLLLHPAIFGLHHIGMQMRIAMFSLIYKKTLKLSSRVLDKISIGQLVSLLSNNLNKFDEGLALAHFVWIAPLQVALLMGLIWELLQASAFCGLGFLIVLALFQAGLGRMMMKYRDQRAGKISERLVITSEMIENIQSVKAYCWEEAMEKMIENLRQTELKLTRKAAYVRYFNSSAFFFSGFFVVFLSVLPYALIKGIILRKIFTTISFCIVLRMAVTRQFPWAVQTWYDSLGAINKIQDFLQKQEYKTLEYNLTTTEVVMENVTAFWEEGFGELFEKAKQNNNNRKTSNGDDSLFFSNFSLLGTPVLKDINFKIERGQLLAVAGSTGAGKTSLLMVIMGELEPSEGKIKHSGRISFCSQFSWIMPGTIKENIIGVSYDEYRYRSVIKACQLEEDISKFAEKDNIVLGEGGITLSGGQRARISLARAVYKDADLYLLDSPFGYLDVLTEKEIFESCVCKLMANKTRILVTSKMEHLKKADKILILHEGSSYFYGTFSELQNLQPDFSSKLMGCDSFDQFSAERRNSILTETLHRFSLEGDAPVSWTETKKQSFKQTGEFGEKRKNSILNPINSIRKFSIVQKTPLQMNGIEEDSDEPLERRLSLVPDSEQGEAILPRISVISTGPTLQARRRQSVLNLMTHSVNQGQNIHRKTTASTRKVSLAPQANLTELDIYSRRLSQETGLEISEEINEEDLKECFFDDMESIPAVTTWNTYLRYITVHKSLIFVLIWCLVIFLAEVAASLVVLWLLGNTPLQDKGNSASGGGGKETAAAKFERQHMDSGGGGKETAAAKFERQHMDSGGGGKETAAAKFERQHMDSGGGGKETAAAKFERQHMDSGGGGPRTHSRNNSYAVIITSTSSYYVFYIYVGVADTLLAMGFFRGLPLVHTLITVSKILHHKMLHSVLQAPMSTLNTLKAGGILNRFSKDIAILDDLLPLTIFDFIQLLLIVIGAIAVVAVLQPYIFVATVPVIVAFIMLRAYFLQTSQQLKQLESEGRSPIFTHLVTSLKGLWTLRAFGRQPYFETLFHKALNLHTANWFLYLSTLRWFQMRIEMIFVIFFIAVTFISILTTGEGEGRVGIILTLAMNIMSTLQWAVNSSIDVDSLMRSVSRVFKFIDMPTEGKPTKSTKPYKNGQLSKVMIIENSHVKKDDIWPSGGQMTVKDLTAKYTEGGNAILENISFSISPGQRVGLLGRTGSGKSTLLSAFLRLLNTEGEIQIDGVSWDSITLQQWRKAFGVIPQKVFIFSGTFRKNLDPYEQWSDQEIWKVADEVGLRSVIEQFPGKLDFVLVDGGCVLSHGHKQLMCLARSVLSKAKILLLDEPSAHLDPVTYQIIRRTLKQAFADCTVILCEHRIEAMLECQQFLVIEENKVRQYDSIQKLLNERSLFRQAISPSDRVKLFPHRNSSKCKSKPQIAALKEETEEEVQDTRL

O=C(/C=C/c1ccc(O)cc1)c1ccc(O)cc1O [Compound 6, 4,2′,4′-trihydroxychalcone]
activity in the rescreening assays ([1]; FACS, S-tag epitopes at the cell surface): active | surface expression of CFTR (FACS) [1]: significant, dose dependent increase | surface expression of CFTR (FACS) ([1]; listed as isoliquiritigenin): significant and dose-dependent upregulation | expression by immunofluorescence labeling using polyclonal S-tag antibody [2]: increased expression | expression of the protein assessed by western blotting [3]: increased expression | activity in the assays of the invention [4]: active
